Reference: patent US20250026724A1, “(1,4,5-TRISUBSTITUTED 1H-PYRAZOL-3-YL)OXY-2-ALKYLTHIOALKYL ACIDS AND -ALKYL ACID DERIVATIVES, SALTS THEREOF AND USE THEREOF AS ACTIVE HERBICIDAL INGREDIENTS” (BAYER AKTIENGESELLSCHAFT, priority 2021, published 2025)

Assays:
Test in all cases: Post-emergence herbicidal action, greenhouse pot trial
Type in all cases: in vivo
[1] = system: Abutilon theophrasti (ABUTH); conditions: visual rating after about 3 weeks; for pest or weed control at 320 g/ha: read-out: Post-emergence effect at 320 g/ha against ABUTH in %
Description: (§1) Seeds of monocotyledonous and dicotyledonous weeds and crop plants are placed in sandy loam in plastic or organic planting pots, covered with soil and cultivated in a greenhouse under controlled growth conditions. 2 to 3 weeks after sowing, the trial plants are treated at the one-leaf stage. The compounds of the invention, formulated in the form of wettable powders (WP) or as emulsion concentrates (EC), are then sprayed onto the green parts of the plants as aqueous suspension or emulsion with addition of 0.5% additive at a water application rate equivalent to 600 l/ha. After about 3 weeks of keeping the trial plants in the greenhouse under optimum growth conditions, the effect of the preparations is rated visually in comparison to untreated controls. For example, 100% activity=the plants have died, 0% activity=like control plants.
(§2) Tables B1 to B14 below show the effects of selected compounds of the general formula (I) according to Table 1 on various harmful plants and at an application rate corresponding to 320 g/ha or lower, which were obtained by the trial procedure specified above. The appendices “a”, “b” and “c” give differentiation by dosage used with otherwise the same harmful plants tested.
(§3) As shown by results from Tables B1 to B19, inventive compounds of the general formula (I) in the case of post-emergence treatment have good herbicidal efficacy against harmful plants, for example Abutilon theophrasti (ABUTH), Alopecurus myosuroides (ALOMY), Amaranthus retroflexus (AMARE), Avena fatua (AVEFA), Digitaria sanguinalis (DIGSA), Echinochloa crus-galli (ECHCG), Bassia scoparia (KCHSC), Lolium rigidum (LOLRI), Matricaria inodora (MATIN), Pharbitis purpurea (PHBPU), Polygonum convolvulus (POLCO), Setaria viridis (SETVI), Veronica persica (VERPE) and Viola tricolor (VIOTR) at an application rate of 320 g of active substance or less per hectare, and good crop plant compatibility in the case of organisms such as Oryza sativa (ORYSA), Zea mays (ZEAMX), Brassica napus (BRSNW), Glycine max (GLXMA) and Triticum aestivum (TRZAS) at an application rate of 320 g or less per hectare.

[2] = system: Amaranthus retroflexus (AMARE); conditions: visual rating after about 3 weeks; for pest or weed control at 320 g/ha / pest or weed control at 80 g/ha: Amaranthus retroflexus, 504 h; for pest or weed control at 320 g/ha: read-out: Post-emergence effect at 320 g/ha against AMARE in %; for pest or weed control at 80 g/ha: read-out: Post-emergence effect at 80 g/ha against AMARE in %
Description: as §1, §2, §3

[3] = system: Avena fatua (AVEFA); conditions: Avena fatua, 504 h, 320 g/ha, visual rating after about 3 weeks, read-out: Post-emergence effect at 320 g/ha against AVEFA in %
Description: as §1, §2, §3

[4] = system: Bassia scoparia (KCHSC); conditions: Bassia scoparia, 504 h, read-out: Post-emergence effect against KCHSC
Description: as §1, §2, §3

[5] = system: Digitaria sanguinalis (DIGSA); conditions: visual rating after about 3 weeks; for pest or weed control at 320 g/ha: Digitaria sanguinalis, 504 h, read-out: Post-emergence effect at 320 g/ha against DIGSA in %
Description: as §1, §2, §3

[6] = system: Echinochloa crus-galli (ECHCG); conditions: visual rating after about 3 weeks; for pest or weed control at 320 g/ha: read-out: Post-emergence effect at 320 g/ha against ECHCG in %
Description: as §1, §2, §3

[7] = system: Matricaria inodora (MATIN); conditions: visual rating after about 3 weeks; for pest or weed control at 320 g/ha / pest or weed control at 80 g/ha: Tripleurospermum inodorum, 504 h; for pest or weed control at 320 g/ha: read-out: Post-emergence effect at 320 g/ha against MATIN in %; for pest or weed control at 80 g/ha: read-out: Post-emergence effect at 80 g/ha against MATIN in %
Description: as §1, §2, §3

[8] = system: Pharbitis purpurea (PHBPU); conditions: visual rating after about 3 weeks; for pest or weed control at 80 g/ha / pest or weed control at 320 g/ha: Ipomoea purpurea, 504 h; for pest or weed control at 80 g/ha: read-out: Post-emergence effect at 80 g/ha against PHBPU in %; for pest or weed control at 320 g/ha: read-out: Post-emergence effect at 320 g/ha against PHBPU in %
Description: as §1, §2, §3

[9] = system: Polygonum convolvulus (POLCO); conditions: visual rating after about 3 weeks; for pest or weed control at 320 g/ha: read-out: Post-emergence effect at 320 g/ha against POLCO in %
Description: as §1, §2, §3

[10] = system: Setaria viridis (SETVI); conditions: 320 g/ha, visual rating after about 3 weeks; for pest or weed control at 320 g/ha: Setaria viridis, 504 h, read-out: Post-emergence effect at 320 g/ha against SETVI in %
Description: as §1, §2, §3

[11] = system: Viola tricolor (VIOTR)
Description: as §1, §2, §3

[12] = Abutilon theophrasti, 504 h, 320 g/ha
[13] = Echinochloa crus-galli, 504 h, 320 g/ha
[14] = Fallopia convolvulus, 504 h, 320 g/ha
[15] = Viola tricolor, 504 h, 320 g/ha, read-out: Post-emergence effect against VIOTR
[16] = Viola tricolor, 504 h, 80 g/ha, read-out: Post-emergence effect against VIOTR

SMILES	pest or weed control at 320 g/ha [1, 12] [%]	pest or weed control at 320 g/ha ([2]; 320 g/ha) [%]	pest or weed control at 320 g/ha ([5]; 320 g/ha) [%]	pest or weed control at 320 g/ha [6, 13] [%]	pest or weed control at 320 g/ha ([7]; 320 g/ha) [%]	pest or weed control at 320 g/ha ([8]; 320 g/ha) [%]	pest or weed control at 320 g/ha [9, 14] [%]	pest or weed control at 320 g/ha [10] [%]	pest or weed control at 320 g/ha [11, 15] [%]	pest or weed control at 80 g/ha [11, 16] [%]	also measured
CSC(Oc1nn(-c2ncccc2F)c(-c2ccc(F)nc2)c1Br)C(=O)O (single isomer, unassigned) [Example I-24]	80	80	90	90	80	90	90	90	90		pest or weed control at 320 g/ha [3]: 80%; pest or weed control at 80 g/ha [4]: 80%; pest or weed control at 320 g/ha [4]: 80%; pest or weed control at 80 g/ha [8]: 90%
CCOC(=O)C(Oc1nn(-c2ncccc2F)c(-c2ccc(F)nc2)c1Br)SC (single isomer, unassigned) [Example I-29]											Post-emergence effect at 320 g/ha against ABUTH in % ([1]; 320 g/ha): 90%; Post-emergence effect at 320 g/ha against AMARE in % ([2]; 320 g/ha): 80%; pest or weed control at 80 g/ha [4]: 80%; pest or weed control at 320 g/ha [4]: 90%; Post-emergence effect at 320 g/ha against DIGSA in % ([5]; 320 g/ha): 90%; Post-emergence effect at 320 g/ha against ECHCG in % ([6]; 320 g/ha): 90%; Post-emergence effect at 320 g/ha against MATIN in % ([7]; 320 g/ha): 80%; Post-emergence effect at 320 g/ha against PHBPU in % ([8]; 320 g/ha): 90%; Post-emergence effect at 80 g/ha against POLCO in % ([9]; 80 g/ha): 90%; Post-emergence effect at 320 g/ha against POLCO in % ([9]; 320 g/ha): 90%; Post-emergence effect at 320 g/ha against SETVI in % [10]: 90%; Post-emergence effect against VIOTR ([11]; 80 g/ha): 80%; Post-emergence effect against VIOTR ([11]; 320 g/ha): 90%
CCOC(=O)C(Oc1nn(-c2cc(F)ccc2F)c(-c2cncc(F)c2)c1I)SC (stereo not drawn) [Example I-02]				90	90			80	90	80	pest or weed control at 80 g/ha [7]: 80%
COC(=O)C(Oc1nn(-c2cc(F)ccc2F)c(-c2cncc(F)c2)c1Br)SC (stereo not drawn) [Example I-07]			90	90	90			90	90	90	pest or weed control at 80 g/ha [7]: 80%; pest or weed control at 20 g/ha ([11]; Viola tricolor, 504 h, 20 g/ha, read-out: Post-emergence effect against VIOTR): 80%
CCOC(=O)C(Oc1nn(-c2ncccc2F)c(-c2ccc(F)nc2)c1C(F)(F)F)SC (stereo not drawn) [Example I-09]	80			80	80	90	90		90		
CCOC(=O)C(Oc1nn(-c2ncccc2F)c(-c2ccc(F)cc2F)c1Br)SC (stereo not drawn) [Example I-14]	80	80	80			80	90	80			
CCOC(=O)C(Oc1nn(-c2cnccn2)c(-c2ccc(F)nc2)c1Br)SC (stereo not drawn) [Example I-17]		80	80	80		80		80			pest or weed control at 320 g/ha [3]: 80%; pest or weed control at 80 g/ha [8]: 80%
CCOC(=O)C(Oc1nn(-c2ncccc2F)c(-c2ccc(F)nc2)c1I)SC (stereo not drawn) [Example I-18]	90	90	80	100		90	90	90	90	90	pest or weed control at 80 g/ha [2]: 80%; pest or weed control at 80 g/ha [8]: 80%; pest or weed control at 80 g/ha ([9]; Fallopia convolvulus, 504 h, 80 g/ha, read-out: Post-emergence effect at 80 g/ha against POLCO in %): 90%
CCOC(=O)C(Oc1nn(-c2ncccc2F)c(-c2ccc(F)nc2)c1C1CC1)SC (stereo not drawn) [Example I-20]	90	80		90					90	80	pest or weed control at 80 g/ha ([1]; Abutilon theophrasti, 504 h, 80 g/ha, read-out: Post-emergence effect at 80 g/ha against ABUTH in %): 80%; pest or weed control at 80 g/ha [2]: 80%
CSC(Oc1nn(-c2ccccc2F)c(-c2ccc(F)nc2)c1I)C(=O)O (stereo not drawn) [Example I-21]	80	90		90			80	90	90	80	
CSC(Oc1nn(-c2ncccc2F)c(-c2ccc(F)nc2)c1C1CC1)C(=O)O (stereo not drawn) [Example I-33]				80					80		pest or weed control at 320 g/ha [3]: 80%
CSC(Oc1nn(-c2ncccc2F)c(-c2ccc(F)nc2)c1Br)C(=O)O (stereo not drawn) [Example I-34]	90	80	90	90	80	90	90	90	90		pest or weed control at 320 g/ha [4]: 80%; Post-emergence effect at 80 g/ha against DIGSA in % ([5]; 80 g/ha): 80%; pest or weed control at 80 g/ha ([6]; Echinochloa crus-galli, 504 h, 80 g/ha, read-out: Post-emergence effect at 80 g/ha against ECHCG in %): 80%; pest or weed control at 80 g/ha [8]: 80%
CSC(Oc1nn(-c2ncccc2F)c(-c2ccc(F)nc2)c1C(F)(F)F)C(=O)O (stereo not drawn) [Example I-38]	80				80		90		90		
CCOC(=O)C(Oc1nn(-c2ccccc2F)c(-c2ccc(F)nc2)c1I)SC (stereo not drawn) [Example I-68]		90	80	90			80	90	90		
